From patent US20220054496A1, “MODULATION OF TRF1 FOR BRAIN CANCER TREATMENT” (Fundación Del Sector Público Estatal Centro Nacional De …, priority 2018, published 2022)
“Also recorded” adds a separate entry of the source.

Columns and labels:
h676 GSCs [1] = assay: Sphere formation assay in patient-derived h676 GSCs; type: cell-based, human; conditions: for sphere formation, dose-response: 7 days; for diameter of spheres / number of spheres: vs untreated controls
Description: (§1) FIG. 48. […] (A) Dose-response curves of the h676 GSCs treated 7 days with the indicated compounds. (B) Dose-response curves of the h543 GSCs treated 7 days with the indicated compounds. Data are represented as mean±SD.
(§2) Spheres were dissociated into single cells and seeded at a density of 50, 100, 200 and 400 cells/well in a 96 well plate. Neurosphere number was assessed after 7 days. Pictures were taken using Nikon Eclipse Ti-U microscope and neurosphere diameter was measured using NIS Elements BR software.
(§3) Given the promising results the present inventors obtained with the TRF1 chemical modulators in the U251 GBM cell line, the present inventors next set to address the effects of these compounds in two independent patient-derived primary GSCs (h543 and h676) cultures.
(§4) Next, the present inventors set to address whether the different compounds were able to block sphere formation in the h676 and h543 GSCs.

h543 GSCs = assay: Sphere formation assay in patient-derived h543 GSCs; type: cell-based, human; conditions: for sphere formation, dose-response: 7 days; for diameter of spheres / number of spheres: vs untreated controls
Description: as §1, §2, §3, §4

TRF1 [2] = assay: Screening of ETP-antitumoral library / phenotypic assay of TRF1 levels in CHA-9.3 cells; type: cell-based, mouse; conditions: for inhibition of TRF1 protein levels / TRF1 modulation in the screening: CHA-9.3 mouse lung cancer cell line, 1 μM, 24 h; for modulation of TRF1 levels by tubulin agents (validation): immunofluorescence
Description: All of them were tested at 1 μM during 24 h in the phenotypic assay that measure TRF1 levels.

TRF1 [3] = assay: Western blot of TRF1 protein levels in h676 GSCs; type: cell-based, human; conditions: 1 μM, 24 h
Description: FIG. 46. Screening of ETP-antitumoral library: Identification of TRF1 modulators in compounds approved by FDA or in clinical trials. (A) Drugs in ETP-antitumoral library distribution in Reactome Pathways. (B) Opera High ContentScreening system was used to identify compounds with the ability to inhibit TRF1, from representative images of confocal validation obtained from cells treated with DMSO (upper photograph of the right side of the panel and b) 1 μM of the tested compound, and determining the signal corresponding to TRF1 foci; TRF1 foci (green signal) can be appreciated clearly in the upper on the nuclear staining with DAPI (blue signal), but they have decreased in the lower photograph. (C) Representation of the inhibition of TRF1 levels by drugs belonging to different signaling pathways that modulate TRF1 at telomeres. Bar fillings vary depending on the signaling pathway. The results corresponding to three PI3K inhibitors inside the ETP-antitumoral library are represented by the three first bars from the right, validating the screening. (D) Structurally diverse MEK inhibitors tested in the chemical biology validation of the MEK/ERK pathway as modulator of TRF1 levels. (E) Structurally diverse ERK inhibitors tested in the chemical biology validation of the MEK/ERK pathway as modulator of TRF1 levels. (F) Inhibition of TRF1 levels by the MEK and ERK inhibitors represented in (D) and (E), respectively, measured by immunofluorescence. (G) Structurally diverse HSP90 inhibitors tested in the chemical biology validation of HSP90 pathway as modulator of TRF1 levels. (H) Inhibition of TRF1 levels by the HSP90 inhibitors represented in (G), measured by immunofluorescence. (I) Structurally diverse tubulin agent tested in the chemical biology validation of tubulin agents as modulator of TRF1 levels. (J) Inhibition of TRF1 levels by the tubulin agents represented in (I), measured by immunofluorescence. (K) Western Blot (up) and quantification (down) of TRF1 protein levels in the h676 GSCs after 24 h treatment with 1 μM of the indicated compounds. Data are represented as mean±SD. n represents biological replicates. Statistical analysis: unpaired t-test.
(§5) Nuclear protein extracts were obtained using Nuclear Cytosolic Fractionation Kit (Biovision) and protein concentration was determined using the Bio-Rad DC Protein Assay (Bio-Rad). Up to 15 μg of protein per extract were separated in SDS-polyacrylamide gels by electrophoresis. After protein transfer onto nitrocellulose membrane (Whatman), the membranes were incubated with the indicated antibodies. Antibody binding was detected after incubation with a secondary antibody coupled to horseradish peroxidase using chemiluminescence with ECL detection KIT (GE Healthcare)
The present inventors treated GSCs for 24 h at 1 μM concentration and assessed TRF1 protein levels by western blot.

p-AKT = p-AKT activation (p-AKT/AKT western blot) in h676 GSCs; type: cell-based, human; conditions: 1 μM, 24 h
Description: FIG. 47. […] Western Blot (up) and quantification (down) of p-AKT/AKT ratio in the h676 GSCs after 24 h treatment with 1 μM of the indicated compounds. Data are represented as mean±SD. n represents biological replicates.
The present inventors have confirmed the modulation of TRF1 through the PI3K-AKT pathway (Méndez-Pertuz et al., 2017). In order to check whether the novel compounds act independently of this pathway, the present inventors treated the cells for 24 h at 1 μM concentration and checked p-AKT activation. They also included in this analysis some compounds previously identified by the same research group: namely ETP-47037 (PI3Ki) (García-Beccaria et al., 2015), and ETP-50946 (FIG. 47, right graph of the lower part).

h676 GSCs [4] = assay: Drug combination studies (sphere number and diameter) in h676 GSCs; type: cell-based, human; conditions: number and diameter of spheres, 7 days
Description: FIG. 51. […] (A-F) Quantification of number of spheres (up) and diameter (down) in h676 GSCs treated with the indicated compounds. Representative image of the spheres (left). Data are represented as mean±SD (up) or mean±SD (down), n represents biological replicates (up) or number of spheres (down). Statistical analysis: unpaired t-test.
Using this concentration as a reference point, the present inventors designed a combinatorial matrix using different concentrations of the compounds (e.g. 2×GI50, GI50 and ½ GI50) to study all the possible combinations. Combination index is calculated to establish if the combination is synergistic, additive or antagonistic (FIG. 50A).

TRF1 [5] = assay: TRF1 nuclear immunofluorescence (TRF1 foci) in U251 cells; type: cell-based, human; conditions: 10 μM, 24 h or 48 hr
Description: For immunofluorescence analyses, cells were plated in a proper density in cell culture μCLEAR plates (Greiner) and fixed in 4% formaldehyde in PBS. Cells were permeabilized with 0.25% Triton in PBS and blocked with 5% BSA in PBS. Tissue sections were fixed in 10% buffered formalin (Sigma) and embedded in paraffin. After deparaffinization and citrate antigen retrieval, sections were permeabilized with 0.5% Triton in PBS and blocked with 1% BSA and 10% Australian FBS ([…]) in PBS. The antibodies were applied overnight in antibody diluents with background reducing agents (Invitrogen).
Immunofluorescence images were obtained using a confocal ultraspectral microscope (Leica TCS-SP5) or the Opera High Content Screening (HCS) system (Perkin Elmer). Quantifications were performed with Definiens software.
(§6) For in vitro studies, ETP-47228 ETP-47037 and ETP-50946 were dissolved in DMSO at a final concentration of 10 or 5 mM. Cells were treated at a concentration of 10 μM for 24 h or 48 hr.
(§7) To address whether these small molecules could represent a new therapeutic strategy for the treatment of GBM, the present inventors first tested the ability of the three independent TRF1 inhibitory molecules (ETP-47228, ETP-47037 and ETP-50946) to downregulate TRF1 protein levels in the U251 human GBM cell line.

TRF1 [6] = assay: Western blot of total TRF1 protein in U251 cells; type: cell-based, human; conditions: 10 μM, 24 h or 48 hr
Description: as §5
Quantifications: Protein-band intensities were measured with ImageJ software and normalized against the loading control.
as §6, §7

U251 cells = assay: Neurosphere formation assay in U251 cells; type: cell-based, human; conditions: U251 in NSC media; seven days; vs DMSO
Description: as §2
Finally, the present inventors checked if the three chemical compounds had the ability to reduce sternness in these cells. They cultured U251 cells with NSC media in order to obtain a suspension culture enriched in stem cells. The inventors performed a sphere formation assay with these cells treated with ETP-47228, ETP-47037 and ETP-50946 or DMSO for seven days. […] Of note, all these effects recapitulated what the present inventors observed with Trf1 genetic downregulation (See 2.2).

[7] = test system: K-Ras^G12V-induced lung tumors; conditions: p53-deficient background; cited from earlier work

Row | SMILES | inhibition of TRF1 protein levels / TRF1 modulation in the screening (TRF1 [2]) | degree of TRF1 inhibition (TRF1 protein levels by western blot) (TRF1 [3]) | dependence on p-AKT (p-AKT activation) (p-AKT) | synergic effect in combination with PI3Ki (ETP-47037) (h676 GSCs [4]) | other results
1 | CC(=O)O[C@@]12CO[C@@H]1C[C@H](O)[C@@]1(C)C(=O)[C@H](O)C3=C(C)[C@@H](OC(=O)[C@H](O)[C@@H](NC(=O)OC(C)(C)C)c4ccccc4)C[C@@](O)([C@@H](OC(=O)c4ccccc4)[C@H]21)C3(C)C [Docetaxel] | inhibit TRF1 protein levels; also recorded: novel TRF1 modulators | medium TRF1 modulators | act independently of p-AKT | significant synergic effect | sphere formation, dose-response (h676 GSCs [1]): most potent compounds; sphere formation, dose-response (h543 GSCs): most potent compounds; modulation of TRF1 levels by tubulin agents (validation) (TRF1 [2]): more strongly
2 | COc1ccc(-c2ccc3c(N4CCOCC4)nc(N4C[C@@H](C)O[C@@H](C)C4)nc3n2)cc1CO [KU-0063794] | inhibit TRF1 protein levels; also recorded: novel TRF1 modulators | medium TRF1 modulators | p-AKT dependent | – | –
3 | CN1CC[C@H](c2c(O)cc(O)c3c(=O)cc(-c4ccccc4Cl)oc23)[C@H](O)C1 [Flavopiridol] | inhibit TRF1 protein levels; also recorded: novel TRF1 modulators | medium TRF1 modulators | act independently of p-AKT | – | –
4 | O=C(Nc1ccc2[nH]nc(-c3ccncc3)c2c1)[C@@H]1CCN(CC(=O)N2CCN(c3ccc(-c4ncccn4)cc3)CC2)C1 [SCH772984] | novel TRF1 modulators | potent TRF1 modulators | act independently of p-AKT | significant synergic effect | inhibition of TRF1 protein levels / TRF1 modulation in the screening (TRF1 [2]; listed as ERKi): inhibit TRF1 protein levels
5 | COc1cc(Nc2ncc3c(n2)-c2ccc(Cl)cc2C(c2c(F)cccc2OC)=NC3)ccc1C(=O)O [Alisertib] | inhibit TRF1 protein levels; also recorded: novel TRF1 modulators | no ability to downregulate TRF1 | act independently of p-AKT | – | –
6 | CC(=O)O[C@H]1C(=O)[C@@]2(C)[C@H]([C@H](OC(=O)c3ccccc3)[C@]3(O)C[C@H](OC(=O)[C@H](O)[C@@H](NC(=O)c4ccccc4)c4ccccc4)C(C)=C1C3(C)C)[C@]1(OC(C)=O)CO[C@@H]1C[C@@H]2O [paclitaxel] | – | – | – | – | modulation of TRF1 levels by tubulin agents (validation) (TRF1 [2]): more strongly
7 | NC(Cc1ccccc1)c1csc(Nc2ncccn2)n1 (racemic) [ETP-50946] | – | – | – | – | TRF1 foci (immunofluorescence) (TRF1 [5]): effectively reduced; total TRF1 protein levels (western blot) (TRF1 [6]): effectively reduced; diameter of neurospheres (U251 cells): strong reduction; number of neurospheres (U251 cells): strong reduction; diameter of spheres (h676 GSCs [1]): significant drastic reduction; number of spheres (h676 GSCs [1]): significant drastic reduction; diameter of spheres (h543 GSCs): significant drastic reduction; number of spheres (h543 GSCs): significant drastic reduction
8 | Cc1cnc2c(N3CCOCC3)nc(-c3ccc(NC(=O)Nc4ccc(C(=O)N5CCN(C)CC5)cc4)cc3)cn12 [ETP-47228] | – | – | – | – | TRF1 foci (immunofluorescence) (TRF1 [5]): effectively reduced; total TRF1 protein levels (western blot) (TRF1 [6]): effectively reduced; diameter of neurospheres (U251 cells): strong reduction; number of neurospheres (U251 cells): strong reduction; diameter of spheres (h676 GSCs [1]): significant drastic reduction; number of spheres (h676 GSCs [1]): significant drastic reduction; diameter of spheres (h543 GSCs): significant drastic reduction; number of spheres (h543 GSCs): significant drastic reduction; growth of already established lung adenocarcinomas [7]: effectively impair the growth
9 | Nc1ccn([C@@H]2O[C@H](CO)[C@@H](O)C2(F)F)c(=O)n1 [Gemcitabine] | inhibit TRF1 protein levels; also recorded: novel TRF1 modulators | medium TRF1 modulators | act independently of p-AKT | significant synergic effect | sphere formation, dose-response (h676 GSCs [1]): most potent compounds; sphere formation, dose-response (h543 GSCs): most potent compounds
10 | C[C@@H](Oc1cc(-n2cnc3ccc(CN4CCN(C)CC4)cc32)sc1C(N)=O)c1ccccc1C(F)(F)F [GSK461364] | inhibit TRF1 protein levels; also recorded: novel TRF1 modulators | no ability to downregulate TRF1 | p-AKT dependent | – | –
